# According to US20050020643A1, “Pyridinyl amides and compositions thereof for use as fungicides” (priority 2002, published 2005):
# Where two headings read alike, the source gives them in different places. Marks after values point to notes of the source that are not given here.
# Tests used:
# Format in all cases: in vivo
# [1] = system: Phytophthora infestans; test: whole plant or invertebrate; details: for Test F disease control rating: 100 g/ha on potato seedlings, sprayed day after inoculation; for pest or weed control at 100 g/ha: Phytophthora infestans, in Solanum tuberosum, 120 h, read-out: Test F disease control rating
# [2] = system: Plasmopara viticola; test: Test E: preventive control of grape downy mildew on grape seedlings
# [3] = system: Phytophthora infestans
# [4] = system: Plasmopara viticola; test: Test G: curative control of grape downy mildew on grape seedlings (sprayed after inoculation); details: sprayed day after inoculation
# [5] = system: Erysiphe graminis f. sp. tritici; test: Test A: preventive control of wheat powdery mildew on wheat seedlings; parameters: concentration or dose not given beside the values; details: sprayed day before inoculation, rated after 7 days, rate not given
# [6] = sprayed day before inoculation, rate not given
# [7] = tomato (or potato) seedlings, sprayed day before inoculation, rate not given
Structure (SMILES),Test F disease control rating [1],"Test E disease control rating [2, 6]","Test D disease control rating [3, 7]",Test G disease control rating ([4]; rate not given),Test A disease control rating [5],Test E disease control rating ([2]; rate 100 g/ha (footnote *)),Test D disease control rating ([3]; 100 g/ha on potato seedlings),Test G disease control rating ([4]; rate 100 g/ha (footnote *)),pest or weed control at 100 g/ha [1]
CC(NC(=O)c1c(Br)ccnc1F)c1ncc(Br)cc1Cl (stereo not drawn) [Compound 37],100%,100%,100%,100%,0%,,,,
Cc1cc(Cl)c(C(=O)NC(C)c2ncc(Cl)cc2Br)c(Cl)n1 (stereo not drawn) [Compound 41],97%,100%,100%,100%,0%,,,,
CC(NC(=O)c1c(Br)ccnc1F)c1ncc(Br)cc1Br (stereo not drawn) [Compound 39],100%,100%,100%,100%,0%,,,,
CC(NC(=O)c1c(Cl)ccnc1Cl)c1ncc(Br)cc1I (stereo not drawn) [Compound 23],98%,100%,100%,96%,0%,,,,
CC(NC(=O)c1c(Br)ccnc1Cl)c1ncc(Br)cc1Cl (stereo not drawn) [Compound 28],100%,100%,99%,100%,0%,,,,
O=C(NCc1ncc(I)cc1Br)c1c(Cl)ccnc1Cl [Compound 35],96%,,,,0%,99* %,100# %,50* %,
COc1cnc(C(C)NC(=O)c2c(Cl)cc(C)nc2Cl)c(Cl)c1 (stereo not drawn) [Compound 21],53%,100%,99%,77%,0%,,,,
"Cc1cc(Cl)c(C(=O)NC(C)c2ncc(Cl)cc2Cl)c(Cl)n1 (stereo not drawn) [Compound 20, 2,4-Dichloro-N-[1-(3,5-dichloro-2-pyridinyl)ethyl]-6-methyl-3-pyridinecarboxamide]",,100%,100%,100%,0%,,,,53%
Cc1cc(Cl)c(C(=O)NCc2ncc(Cl)cc2Br)c(Cl)n1 [Compound 40],95%,100%,100%,99%,0%,,,,
"Cc1cc(Cl)c(C(=O)NCc2ncc(Cl)cc2Cl)c(Cl)n1 [Compound 19, 2,4-Dichloro-N-[(3,5-dichloro-2-pyridinyl)methyl]-6-methyl-3-pyridinecarboxamide]",,100%,99%,100%,0%,,,,0%
Cc1cc(Cl)c(C(=O)NCc2ncc(I)cc2Br)c(Cl)n1 [Compound 42],93%,100%,100%,100%,0%,,,,
CC(NC(=O)c1c(I)ccnc1Cl)c1ncc(Cl)cc1Cl (stereo not drawn) [Compound 27],0%,100%,100%,100%,0%,,,,
Cc1ccnc(Br)c1C(=O)NC(C)c1ncc(Br)cc1Cl (stereo not drawn) [Compound 29],57%,100%,99%,94%,0%,,,,
CC(NC(=O)c1c(I)ccnc1Cl)c1ncc(Br)cc1Br (stereo not drawn) [Compound 30],44%,100%,100%,93%,0%,,,,
CC(NC(=O)c1c(Br)ccnc1F)c1ncc(Cl)cc1Cl (stereo not drawn) [Compound 38],100%,100%,100%,100%,0%,,,,
O=C(NCc1ncc(Br)cc1Cl)c1c(I)ccnc1Cl [Compound 24],0%,100%,100%,84%,0%,,,,
Cc1cc(Cl)c(C(=O)NC(C)c2ncc(I)cc2Br)c(Cl)n1 (stereo not drawn) [Compound 43],90%,100%,100%,100%,0%,,,,
CC(NC(=O)c1c(I)ccnc1F)c1ncc(Br)cc1Cl (stereo not drawn) [Compound 33],100%,100%,100%,100%,0%,,,,
CC(NC(=O)c1c(I)ccnc1Cl)c1ncc(Br)cc1Cl (stereo not drawn) [Compound 25],0%,100%,100%,72%,0%,,,,
Cc1cc(Cl)c(C(=O)NCc2ncc(Br)cc2Br)c(Cl)n1 [Compound 18],77%,100%,100%,100%,0%,,,,
Cc1cc(Cl)c(C(=O)NC(C)c2ncc(Br)cc2Br)c(Cl)n1 (stereo not drawn) [Compound 32],82%,100%,100%,99%,0%,,,,
CC(NC(=O)c1c(I)ccnc1F)c1ncc(Br)cc1Br (stereo not drawn) [Compound 31],79%,100%,100%,100%,0%,,,,
CC(NC(=O)c1c(Cl)ccnc1Cl)c1ncc(I)cc1Br (stereo not drawn) [Compound 36],92%,,,,0%,100* %,100# %,92* %,
COc1cnc(C(C)NC(=O)c2c(Cl)ccnc2Cl)c(Cl)c1 (stereo not drawn) [Compound 22],98%,100%,100%,94%,0%,,,,
O=C(NCc1ncc(Br)cc1Br)c1c(Cl)ccnc1Cl [Compound 17],73%,99%,100%,98%,0%,,,,
O=C(NCc1ncc(Cl)cc1Cl)c1c(I)ccnc1Cl [Compound 26],0%,81%,100%,99%,0%,,,,
CC(NC(=O)c1c(Cl)ccnc1Cl)c1ncc(Cl)cc1Br (stereo not drawn) [Compound 34],99%,100%,100%,100%,0%,,,,
